Results: patent publication US20150148311A1, “NON-SYSTEMIC TGR5 AGONISTS” (Ardelyx, Inc., priority 2011, published 2015)
pEC50: −log10 of the molar value. Read-outs that look alike come from different tables or passages of the source.

Experiments:
total GLP-1 = assay: In vivo GLP-1 secretion, plasma total GLP-1 8 h post dose; settings: Mus musculus, C57BL/6 male mice, food removed, plasma total GLP-1 eight hours after dosing, read-out: GLP-1 fold change over vehicle, Mean
From the text: (§1) Eight hours later, each mouse was heavily anesthetized with isoflurane, the peritoneal cavity was opened and the gallbladder, with its entire contents, was carefully excised and weighed. Blood was collected from the left ventricle of the heart and processed to plasma in EDTA-coated tubes containing aprotinin and DPPIV inhibitor for measurement of total GLP-1 (K150FCC; Meso Scales Discovery, Gaithersburg Md.).

[1] = Compound concentration in gall bladder, LC-MS/MS, 8 h post dose; assay type: in vivo; settings: 30 mg/kg; for Number of Mice with Gallbladder Concentration < LLOQ: mice below LLOQ / mice in group; for concentration at 8 h: male, C57BL/6, mouse, with contents, mice, gallbladder homogenate, read-out: Mean Example Gallbladder Concentration
Method in brief: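 Gallbladder with its contents excised from isoflurane-anesthetized mice 8 h after dosing and homogenized in water. Homogenate diluted 1:5, precipitated with acetonitrile and measured by LC-MS/MS. Levels interpolated from per-compound standard curves in vehicle-treated gallbladder homogenate.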

C57BL/6 male mice = assay: In vivo gallbladder measurement (weight) 8 h post dose; settings: 30 mg/kg; for Gallbladder weight/body weight fold change over vehicle, Significance: 8 h, vs. vehicle, one-way ANOVA, Dunnett's test; for Gallbladder weight/body weight fold change over vehicle, Mean: food removed, eight hours after dosing
From the text: as §1

[2] = Compound plasma concentration, LC-MS/MS, 8 h post dose; assay type: in vivo; settings: 30 mg/kg; for Number of Mice with Plasma Concentration < LLOQ: mice below LLOQ / mice in group; for concentration at 8 h: male, C57BL/6, mouse, mice, plasma, read-out: Mean Example Plasma Concentration
Method in brief: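 Blood was taken from the left ventricle 8 h after dosing, under isoflurane anesthesia, into EDTA tubes containing aprotinin and DPPIV inhibitor. Plasma was protein-precipitated with acetonitrile containing an internal standard, and supernatants were analyzed by LC-MS/MS against a plasma standard curve.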

human TGR5 = target: T1, human TGR5 (Homo sapiens, UniProt Q8TDU6); assay: Cell-based TGR5 assay, HEK293 cells stably expressing human TGR5, cAMP by HTRF; settings: 0.05 nM to 10 μM; for EC50: HEK293 cells stably expressing human TGR5, 30 min at 37 C, read-out: pEC50 Human TGR5 (converted); for pEC50: pEC50 Human TGR5, HEK293 cells stably expressing human TGR5, 30 min at 37 C
T1 construct: expressed in transfected cells
T1 sequence (Q8TDU6 1-330): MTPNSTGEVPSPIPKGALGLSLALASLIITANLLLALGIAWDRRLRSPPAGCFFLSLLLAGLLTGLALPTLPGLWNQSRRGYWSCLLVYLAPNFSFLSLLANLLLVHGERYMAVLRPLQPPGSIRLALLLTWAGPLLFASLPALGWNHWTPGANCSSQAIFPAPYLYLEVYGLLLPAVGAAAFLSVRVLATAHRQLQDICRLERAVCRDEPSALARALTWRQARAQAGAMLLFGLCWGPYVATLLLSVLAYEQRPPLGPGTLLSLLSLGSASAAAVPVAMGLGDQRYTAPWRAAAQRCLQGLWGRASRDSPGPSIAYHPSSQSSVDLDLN
Method in brief: (§2)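 cAMP HTRF read-out, converted to concentration via standard curve, after a 30 min, 37 °C compound exposure in HBSS with 10 mM HEPES pH 7.4 and 0.5 mM IBMX, compounds serially diluted 3-fold from 10 mM DMSO stock then 100-fold. Cells: stable human TGR5 HEK293, or NCI-H716 expressing TGR5 endogenously.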

[3] = target: T2, endogenously expressed TGR5 in NCI H716 (Homo sapiens, UniProt Q8TDU6); assay: Cell-based TGR5 assay, NCI-H716 cells endogenously expressing human TGR5, cAMP by HTRF; settings: 30 min at 37 C, 22 nM to 50 μM, read-out: pEC50 endogenously expressed TGR5 in NCI H716 (converted)
T2 construct: human caecum carcinoma cell line NCI-H716 which endogenously expresses human TGR5; endogenous in cells; host or cells: NCI-H716
T2 sequence (Q8TDU6 1-330): T1 sequence (Q8TDU6 1-330)
Method in brief: as §2

human IBAT = target: T3, human IBAT (Homo sapiens, UniProt Q12908); assay: IBAT counter screen, [3H]taurocholic acid uptake in IBAT-transfected HEK293 cells; assay type: cell-based; settings: for EC50: read-out: pEC50 human IBAT (converted)
T3 construct: expressed in transfected cells; host or cells: HEK293
T3 sequence (Q12908 1-348): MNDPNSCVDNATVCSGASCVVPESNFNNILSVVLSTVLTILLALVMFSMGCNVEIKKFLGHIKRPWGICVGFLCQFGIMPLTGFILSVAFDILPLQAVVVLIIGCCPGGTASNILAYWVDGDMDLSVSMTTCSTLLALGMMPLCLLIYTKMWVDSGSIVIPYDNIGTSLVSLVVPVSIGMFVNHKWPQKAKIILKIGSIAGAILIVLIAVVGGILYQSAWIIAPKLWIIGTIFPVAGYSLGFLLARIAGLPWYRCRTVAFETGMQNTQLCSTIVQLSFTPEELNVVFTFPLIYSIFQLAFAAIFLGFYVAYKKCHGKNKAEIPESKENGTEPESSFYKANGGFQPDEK
Experimental: Following a 40-min incubation, the solution was removed, and the cells were washed twice with uptake buffer. Cells were lysed by addition of 20 μL 0.1% Tween 80 followed by 100 μL scintillation fluid and counted using a TopCount (Perkin Elmer).

| SMILES | response vs control in vivo at 30 mg/kg (total GLP-1) | Number of Mice with Gallbladder Concentration < LLOQ [1] | concentration at 8 h [1] | Gallbladder weight/body weight fold change over vehicle, Significance (C57BL/6 male mice) | Gallbladder weight/body weight fold change over vehicle, Mean (C57BL/6 male mice) | Number of Mice with Plasma Concentration < LLOQ [2] | concentration at 8 h [2] | EC50 (human TGR5) | EC50 [3] | EC50 (human IBAT) | pEC50 (human IBAT) | pEC50 (human TGR5) |
| --- | --- | --- | --- | --- | --- | --- | --- | --- | --- | --- | --- | --- |
| O=C(N1CCN(C2CC2)c2ccccc21)C1(NCc2cc(Cl)c(O)cc2Cl)CC1 [Example 165, (4-Cyclopropyl-3,4-dihydroquinoxalin-1(2H)-yl)(1-((2,5-dichloro-4-hydroxybenzyl)amino)cyclopropyl)methanone] | 120% | 0/8 | 600 nM | n.s. | 1.5 fold change over vehicle | 2/8 | 2.2 ng/mL | < 100 nM |  |  |  |  |
| O=C(OC1(C(=O)N2CCN(C3CC3)c3ccccc32)CC1)c1cc(Cl)ccc1Cl [Example 166, 1-(4-cyclopropyl-1,2,3,4-tetrahydroquinoxaline-1-carbonyl)cyclopropyl 2,5-dichlorobenzoate] | 150% | 8/8 | < 12 nM | n.s. | 1.2 fold change over vehicle | 2/8 | 1.4 ng/mL | < 100 nM |  |  |  |  |
| O=C(N1CCN(C2CC2)c2ccccc21)C1(NCc2cc(Cl)cc(O)c2Cl)CC1 [Example 167, (4-cyclopropyl-3,4-dihydroquinoxalin-1(2H)-yl)(1-((2,5-dichloro-3-hydroxybenzyl)amino)cyclopropyl)methanone] | 130% | 0/8 | 3300 nM | n.s. | 1.3 fold change over vehicle | 5/8 | 2.3 ng/mL | 126 to 1000 nM |  |  |  |  |
| CN(C(=O)C1(OCc2cc(Cl)c(CCCCCNC(=O)NC[C@H](O)[C@@H](O)[C@H](O)[C@H](O)CO)cc2Cl)CC1)c1ccccc1OC1CC1 [Example 258] | 110% | 0/8 | 700 nM | n.s. | 1.1 fold change over vehicle | 7/8 | 9.4 ng/mL | < 100 nM |  |  |  |  |
| CN(C(=O)C1(OCc2cc(Cl)c(CCCNC(=O)NC[C@H](O)[C@@H](O)[C@H](O)[C@H](O)CO)cc2Cl)CC1)c1ccccc1OC1CC1 [Example 96, N-(2-cyclopropoxyphenyl)-1-(2,5-dichloro-4-(3-(3-((2S,3R,4R,5R)-2,3,4,5,6-pentahydroxyhexyl)ureido)propyl)benzyloxy)-N-methylcyclopropanecarboxamide] | 190% | 0/8 | 1340 nM | n.s. | 0.8 fold change over vehicle | 8/8 | < 2 ng/mL | < 100 nM | < 100 nM |  |  |  |
| O=C(NCCCCCc1cc(Cl)c(CN2CSC[C@H]2C(=O)N2CCN(C3CC3)c3ccccc32)cc1Cl)NC(CO)(CO)CO [Example 198] |  | 0/8 | 1300 nM | * (* p < 0.05 vs. vehicle; One-way ANOVA followed by Dunnett's test) | 1.9 fold change over vehicle | 0/8 | 3.6 ng/mL |  |  | > 25100 nM |  |  |
| CN(C(=O)C1(OCc2cc(Cl)c(CCCCC(=O)NC[C@H](O)[C@@H](O)[C@H](O)[C@H](O)CO)cc2Cl)CC1)c1ccccc1OC1CC1 [Example 259] | 140% | 0/8 | 100 nM | n.s. | 0.9 fold change over vehicle | 6/8 | 1.1 ng/mL | < 100 nM |  |  |  |  |
| O=C(O)CNC(=O)[C@H](CSSC[C@H](NC(=O)CC[C@H](NC(=O)CCCCc1cc(Cl)c(CN2CSC[C@H]2C(=O)N2CCN(C3CC3)c3ccccc32)cc1Cl)C(=O)O)C(=O)NCC(=O)O)NC(=O)CC[C@H](NC(=O)CCCCc1cc(Cl)c(CN2CSC[C@H]2C(=O)N2CCN(C3CC3)c3ccccc32)cc1Cl)C(=O)O [Example 241] |  | 8/8 | < 60 nM |  |  | 8/8 | < 10 ng/mL |  |  |  | < 4.60 | > 7.00 |
| O=C([C@@H]1CSCN1Cc1cc(Cl)cc(O)c1Cl)N1CCN(C2CC2)c2ccccc21 [Example 169, (R)-(4-cyclopropyl-3,4-dihydroquinoxalin-1(2H)-yl)(3-(2,5-dichloro-3-hydroxybenzyl)thiazolidin-4-yl)methanone] | 150% | 0/8 | 1200 nM |  | 1.9 fold change over vehicle | 4/8 | 2.1 ng/mL | < 100 nM |  |  |  |  |
| O=C(CCCCc1cc(Cl)c(CN2CSC[C@H]2C(=O)N2CCN(C3CC3)c3ccccc32)cc1Cl)N[C@@H](C(=O)O)[C@@H](O)[C@H](O)[C@H](O)CO [Example 240] |  | 0/8 | 3920 nM |  |  | 0/8 | 28.1 ng/mL |  |  | > 25100 nM |  | > 7.00 |
